Publication PMC11743598, “Identification of a binding site for small molecule inhibitors targeting human TRPM4” (Nature Communications, 2025)

Target: T1, HsTRPM4 (Homo sapiens, UniProt Q8TD43)
T1 construct: gene TRPM4; full-length, wild-type codon-optimized gene, C-terminal HA and FLAG tags, pcDNA3.1; patch clamp in transiently transfected cells (TsA-201); cryo-EM from HEK293F, SMA native nanodiscs, C4 symmetry (homotetramer)
Test: cryo-EM structure, […] A
Format: binding
Conditions: endogenous lipid assigned from density, three sites per protomer, SMA native nanodiscs

T1 sequence (Q8TD43 whole entry): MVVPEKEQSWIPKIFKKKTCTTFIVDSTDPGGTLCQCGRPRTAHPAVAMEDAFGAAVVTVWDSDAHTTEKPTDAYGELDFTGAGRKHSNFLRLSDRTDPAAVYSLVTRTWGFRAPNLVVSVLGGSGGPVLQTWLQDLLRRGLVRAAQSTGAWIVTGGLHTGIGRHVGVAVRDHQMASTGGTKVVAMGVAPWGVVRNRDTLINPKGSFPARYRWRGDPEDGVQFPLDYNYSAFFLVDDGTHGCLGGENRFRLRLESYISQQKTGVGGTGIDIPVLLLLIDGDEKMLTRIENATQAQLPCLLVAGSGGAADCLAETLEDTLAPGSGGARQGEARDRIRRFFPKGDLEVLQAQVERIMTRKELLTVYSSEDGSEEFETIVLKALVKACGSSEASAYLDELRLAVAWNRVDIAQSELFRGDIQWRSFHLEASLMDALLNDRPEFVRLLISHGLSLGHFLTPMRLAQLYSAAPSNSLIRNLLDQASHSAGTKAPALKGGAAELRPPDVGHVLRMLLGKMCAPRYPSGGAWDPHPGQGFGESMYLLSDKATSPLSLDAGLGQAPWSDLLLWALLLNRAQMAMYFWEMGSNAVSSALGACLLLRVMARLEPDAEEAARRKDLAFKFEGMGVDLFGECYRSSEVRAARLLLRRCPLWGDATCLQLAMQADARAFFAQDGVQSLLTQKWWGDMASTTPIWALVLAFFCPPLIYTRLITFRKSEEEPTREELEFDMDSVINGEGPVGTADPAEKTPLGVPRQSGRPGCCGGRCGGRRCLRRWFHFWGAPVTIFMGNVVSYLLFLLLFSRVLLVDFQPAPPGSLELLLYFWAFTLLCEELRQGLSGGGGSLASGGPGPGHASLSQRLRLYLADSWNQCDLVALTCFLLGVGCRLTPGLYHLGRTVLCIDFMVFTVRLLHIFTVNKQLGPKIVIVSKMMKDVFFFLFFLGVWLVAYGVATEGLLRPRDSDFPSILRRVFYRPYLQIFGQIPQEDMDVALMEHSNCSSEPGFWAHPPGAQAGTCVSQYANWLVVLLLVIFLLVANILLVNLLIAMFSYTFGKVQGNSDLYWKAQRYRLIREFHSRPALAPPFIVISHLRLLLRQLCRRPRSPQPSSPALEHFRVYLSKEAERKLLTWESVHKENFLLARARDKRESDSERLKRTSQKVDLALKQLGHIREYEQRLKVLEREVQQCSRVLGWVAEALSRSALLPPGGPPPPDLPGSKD

CC(C)CCC[C@@H](C)[C@H]1CC[C@H]2[C@@H]3CC=C4C[C@@H](O)CC[C@]4(C)[C@H]3CC[C@]12C [cholesterol]
cryo-EM structure, 3.67 A: primarily three densities for cholesterol molecules bound to TRPM4 observed
